Entries after “also recorded” stand apart in the source; their conditions may differ.
What was measured:
Assay type in all cases: cell-based
[1] = test system: endogenous AR-dependent gene expression; experiment: Hormone-dependent FKBP51 and/or PSA protein levels by Western blot and densitometry; settings: range of PC257 concentrations, normalized to GAPDH
Protocol: Referring to FIG. 23, hormone-dependent FKBP51 and/or PSA protein levels were assessed by Western blot and densitometry in the indicated cell lines in the presence of a range of PC257 concentrations. GAPDH was used as a loading control and the densitometry data were normalized to GAPDH.

[2] = test system: progesterone receptor (PR); experiment: PR-dependent luciferase reporter assay in T47D cells; settings: result in words
Protocol: (§1) Referring to FIG. 21, hormone-induced, receptor-dependent luciferase reporter gene expression was assessed in the presence of a range of PC257 concentrations for androgen receptor (AR) and glucocorticoid receptor (GR) in MDAkb2 cells, and for progesterone receptor (PR) and estrogen receptor (ER) in T47D cells. The IC50 values for AR, GR and PR inhibition are shown.

[3] = test system: androgen receptor (AR); experiment: AR-mediated luciferase reporter assay in MDA-kb2 cells (200 pM DHT)
Protocol: FIGS. 19A-19B depict identification of novel FKBP52-specific hit compounds in accordance with an illustrative embodiment. Structure-based drug design methodology and in silico library screening was used to identify 107 molecules targeting the FKBP52 PPIase pocket. Molecules were assessed for the ability to inhibit AR-mediated luciferase expression at a single high concentration (25 μM) in MDA-kb2 cells. […] MDA-kb2 cells were treated with 200 pM DHT with a range of derivative concentrations. Molecules in the low μM range will be tested in GR-, PR- and ER-Mediated luciferase assays in order to assess GR-dependent activity, PR-dependent activity and to test the effects of ER-regulated activity. A detailed evaluation of all candidate molecules will be tested in multiple cellular and animal models of prostate cancer.
FIGS. 20A-20D depict PC257 (ZINC3424402) which inhibits FKBP52-Specific AR, GR and ER-Mediated Activity in accordance with an illustrative embodiment. […]
as §1, with “The IC50 values for AR, GR and PR inhibition are shown.” left out

[4] = test system: AR nuclear translocation; experiment: AR nuclear translocation by fluorescence microscopy in 22Rv1 cells; settings: 22Rv1 prostate cancer cells, 75 μM, in the presence of hormone
Protocol: FIG. 24 depicts that PC257 Blocks Androgen-Dependent AR Nuclear Translocation in accordance with an illustrative embodiment.
Referring to FIG. 24, 22Rv1 prostate cancer cells were treated with or without 75 μM in the presence of hormone and AR and FKBP52 cellular localization was assessed by fluorescence microscopy.

[5] = test system: glucocorticoid receptor (GR); experiment: GR-dependent luciferase reporter assay in MDA-kb2 cells (50 nM DEX); settings: MDAkb2 cells, result in words
Protocol: (§2) FIGS. 20A-20D depict PC257 (ZINC3424402) which inhibits FKBP52-Specific AR, GR and ER-Mediated Activity in accordance with an illustrative embodiment. (FIG. 20A) An in silico screen lead to 107 lead molecules for functional screening that lead to an initial hit molecule PC257 (ZINC3424402). (FIG. 20B) MDA-kb2 cells expressing a stably AR- and GR-response luciferase reporter was treated with 200 pM DHT with a range of PC257 (ZINC3424402) concentrations (0, 0.01, 0.1, 1, 10, 25, 50, and 100 uM) for 16-18 hours in order to test for AR-dependent activity. The graphs represent an average of 4 independent receptor mediated luciferase receptor experiments. (FIG. 20C) MDA-kb2 cells expressing a stably AR- and GR-responsive luciferase reporter was treated with 50 nM DEX with a range of PC257 (ZINC3424402) concentrations (0, 0.01, 0.1, 1, 10, 25, 50, and 100 uM) for 16-18 hours in order to test for GR-dependent activity. The graphs represent an average of 4 independent receptor mediated luciferase receptor experiments. […]
as §1, with “The IC50 values for AR, GR and PR inhibition are shown.” left out

[6] = test system: estrogen receptor (ER); experiment: ER-regulated luciferase reporter assay in T47D-KBluc cells (10 pM E2); settings: result in words
Protocol: as §2
as §1, with “The IC50 values for AR, GR and PR inhibition are shown.” left out

[7] = test system: FKBP52-regulated AR activity; experiment: DHT-induced AR-dependent luciferase reporter with or without exogenous FKBP52 in fkbp52-deficient cells; settings: presence or absence of exogenous FKBP52; fkbp52-deficient 22Rv1, HeLa and mouse embryonic fibroblast cells
Protocol: Referring to FIG. 22, dihydrotestosterone (DHT)-induced, androgen receptor-dependent luciferase reporter gene expression was assessed in the presence of a range of PC257 concentrations in the presence or absence of exogenous FKBP52 expression in fkbp52-deficient 22Rv1, HeLa, and mouse embryonic fibroblast cells. The IC50 values are indicated. […] PC257 is anticipated to target the PPIase pocket, a highly conserved enzymatic pocket among the FKBP family of proteins.

- IC50 ([3]; MDA-kb2 cell reporter assay, 200 pM DHT, full dose response, read-out: IC50, inhibition of AR activity): 2 µM
SMILES: Cc1cc(C(=O)COC(=O)Cc2n[nH]c(=O)c3ccccc23)c(C)n1C[C@H]1COc2ccccc2O1 [PC257, [2-[1-[[(3S)-2,3-Dihydro-1,4-benzodioxin-3-yl]methyl]-2,5-dimethylpyrrol-3-yl]-2-oxoethyl] 2-(4-oxo-3H-phthalazin-1-yl)acetate]
- endogenous AR-dependent gene expression (FKBP51/PSA protein) [1]: abrogates endogenous AR-dependent gene expression
- inhibition of PR activity [2]: specifically abrogates
- inhibition of AR activity ([3]; MDA-kb2 cells, luciferase reporter, result in words): inhibition of AR activity in the low micromolar range; also recorded: specifically abrogates
- AR nuclear translocation [4]: significantly inhibits AR nuclear translocation
- inhibition of GR activity [5]: specifically abrogates
- inhibitory activity on ER [6]: no inhibitory activity
- preference for FKBP52-regulated AR activity [7]: preferentially targets FKBP52-regulated AR activity with increased potency
